The text below walks through data of article PMC6606611, “A comparative analysis of secreted protein disulfide isomerases from the tropical co-endemic parasites Schistosoma mansoni and Leishmania major” (Scientific Reports, 2019).

Usually IC50 stands for the concentration at which inhibition is half-maximal. A lower IC50 goes with greater potency.

One test concerns the target T1, LmPDI (Leishmania major, UniProt Q8I8E1).
T1 construct: gene pdi; recombinant, N-terminal cleavable His-FLAG tag
Kind of test: fluorimetric di-eosin-GSSG disulfide reductase assay, […] protein. Format: biochemical.

For a further test, the target named is T2, HsPDIA3/ERp57 (Homo sapiens, UniProt P30101).
T2 construct: gene PDIA3
T2 sequence (P30101 25-505): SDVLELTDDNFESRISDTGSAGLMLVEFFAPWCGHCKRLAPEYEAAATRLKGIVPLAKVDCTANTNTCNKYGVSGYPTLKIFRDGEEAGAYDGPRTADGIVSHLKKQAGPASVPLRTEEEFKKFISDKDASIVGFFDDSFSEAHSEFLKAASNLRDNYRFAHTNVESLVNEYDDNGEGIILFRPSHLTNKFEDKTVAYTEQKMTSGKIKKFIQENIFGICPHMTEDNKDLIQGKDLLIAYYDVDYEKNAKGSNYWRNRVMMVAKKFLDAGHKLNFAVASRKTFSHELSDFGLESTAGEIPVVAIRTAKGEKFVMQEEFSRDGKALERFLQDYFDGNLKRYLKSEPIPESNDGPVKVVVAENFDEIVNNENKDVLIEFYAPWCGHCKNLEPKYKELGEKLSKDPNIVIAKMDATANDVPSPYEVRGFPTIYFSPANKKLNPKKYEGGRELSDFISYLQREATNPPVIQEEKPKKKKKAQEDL
As to the kind of experiment: biochemical.

The target in a further test is T3, SmERp60 (Schistosoma mansoni, UniProt P38658).
T3 construct: recombinant, GST tag cleaved
T3 sequence (P38658 15-484): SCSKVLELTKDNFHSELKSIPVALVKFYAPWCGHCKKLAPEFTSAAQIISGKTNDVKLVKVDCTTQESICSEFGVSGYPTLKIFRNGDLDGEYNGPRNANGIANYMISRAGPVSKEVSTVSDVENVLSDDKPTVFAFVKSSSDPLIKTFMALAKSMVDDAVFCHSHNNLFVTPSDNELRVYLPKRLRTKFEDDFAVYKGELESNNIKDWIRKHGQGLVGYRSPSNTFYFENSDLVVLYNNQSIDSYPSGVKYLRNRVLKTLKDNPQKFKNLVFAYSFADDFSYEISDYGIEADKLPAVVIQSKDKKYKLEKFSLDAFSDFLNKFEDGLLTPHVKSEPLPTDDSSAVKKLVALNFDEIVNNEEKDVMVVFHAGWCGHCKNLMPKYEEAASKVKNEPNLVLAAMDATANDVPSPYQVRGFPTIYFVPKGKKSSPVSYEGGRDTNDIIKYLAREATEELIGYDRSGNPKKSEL
As to the kind of experiment: fluorimetric di-eosin-GSSG disulfide reductase assay, […] protein. Format: biochemical.

T1 sequence (Q8I8E1 entry or part of it): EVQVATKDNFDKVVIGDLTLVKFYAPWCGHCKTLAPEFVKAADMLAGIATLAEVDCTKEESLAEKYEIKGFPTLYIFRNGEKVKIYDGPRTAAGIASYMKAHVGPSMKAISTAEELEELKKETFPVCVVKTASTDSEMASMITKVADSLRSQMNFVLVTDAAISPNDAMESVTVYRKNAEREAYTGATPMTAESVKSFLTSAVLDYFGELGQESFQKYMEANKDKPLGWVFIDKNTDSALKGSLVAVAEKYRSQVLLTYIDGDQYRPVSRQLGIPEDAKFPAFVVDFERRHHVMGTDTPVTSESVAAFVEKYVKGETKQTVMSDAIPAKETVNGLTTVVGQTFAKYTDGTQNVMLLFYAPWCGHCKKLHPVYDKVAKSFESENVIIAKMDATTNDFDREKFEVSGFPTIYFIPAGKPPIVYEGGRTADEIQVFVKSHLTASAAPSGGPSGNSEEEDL

For the compound `O=C1O[C@H]2[C@@H]3OC(=O)c4cc(O)c(O)c(O)c4-c4c(O)c(O)c5oc(=O)c6c(c(O)c(O)c7oc(=O)c4c5c76)-c4c(cc(O)c(O)c4O)C(=O)OC[C@H]3OC(O)[C@@H]2OC(=O)c2cc(O)c(O)c(O)c2-c2c1cc(O)c(O)c2O` (mixture of isomers) [punicalagin], the values for the IC50 on LmPDI and against HsPDIA3/ERp57 were 7300 nM and 500 nM, respectively.
`COc1cc([C@H]2Oc3cc([C@H]4Oc5cc(O)cc(O)c5C(=O)[C@@H]4O)ccc3O[C@@H]2CO)ccc1O` [silibinin A] came in with an IC50 against SmERp60 of 750 nM.
